Laboratory results taken from patent publication US20180282323A1, “Mesoionic imidazole derivatives as insecticides” (BAYER CROPSCIENCE AKTIENGESELLSCHAFT, priority 2015, published 2018).
Read-outs that look alike come from different tables or passages of the source.

Key:
[1] = log P by HPLC on reversed-phase column (EEC directive 79/831 Annex V.A8); type: physicochemical; settings: for log p a): HPLC on reversed-phase column
Protocol: a) The determination of the [M+H]^+ by LC-MS in the acidic range was effected at pH 2.7, with acetonitrile (containing 0.1% formic acid) and water as eluents; linear gradient from 10% acetonitrile to 95% acetonitrile, instrument: Agilent 1100 LC system, Agilent MSD system, HTS PAL.
The log P values reported in the tables and preparation examples above were determined in accordance with EEC directive 79/831 Annex V.A8 by HPLC (High Performance Liquid Chromatography) using a reversed-phase column (C18). Temperature 43° C.

[2] = test system: Myzus persicae; assay: Myzus persicae oral test; type: in vivo; settings: application rate 20 ppm, oral uptake through parafilm, after 5 days; for pest or weed control at 20 ppm: Myzus persicae, 120 h, read-out: efficacy
Protocol: Myzus persicae—Oral Test Solvent: 100 parts by weight of acetone
To produce an appropriate active ingredient formulation, 1 part by weight of active ingredient is dissolved with the stated parts by weight of solvent and made up with water until the desired concentration is attained.
50 μl of the active ingredient formulation are transferred into microtitre plates and made up to a final volume of 200 μl with 150 μl of IPL41 insect medium (33%+15% sugar). Subsequently, the plates are sealed with parafilm, which a mixed population of green peach aphids (Myzus persicae) within a second microtitre plate is able to puncture and imbibe the solution through it.
After 5 days, the efficacy in % is determined. 100% means that all the aphids have been killed; 0% means that no aphids have been killed.

[3] = HPLC on reversed-phase column (footnote a)

Compound | log p [1, 3] | efficacy [2] | log p a) [1] | further results
O=C(CSc1ccccc1)c1c([O-])n(Cc2cnc(Cl)s2)c2cccc[n+]12 [Example I-1-025] | 2.67 | 100% |  | 
COCC(=O)c1c([O-])n(Cc2ccc(Cl)nc2)c2ccc(C)c[n+]12 [Example I-1-167] | 1.48 | 100% |  | 
COCC(=O)c1c([O-])n(Cc2cncc(Cl)c2)c2cccc[n+]12 [Example I-1-109] | 1.15 | 100% |  | 
COC(=O)c1c([O-])n(Cc2cnc(Cl)c(Cl)c2)c2cccc[n+]12 [Example I-1-199] |  | 100% | 1.66 | 
CNC(=O)c1c([O-])n(Cc2cnc(C)cn2)c2cccc[n+]12 [Example I-1-245] |  | 90% | 0.76 | 
COC(=O)c1c([O-])n(Cc2ccc(F)nc2)c2c(C)ccc[n+]12 [Example I-1-214] |  | 100% | 1.21 | 
O=C(NC1CC1)c1c([O-])n(Cc2ccc(Cl)nc2)c2ccc(F)c[n+]12 [Example I-1-170] | 1.79 | 100% |  | 
O=C(Cn1cccn1)c1c([O-])n(Cc2cncnc2)c2cccc[n+]12 [Example I-1-066] | 0.56 | 90% |  | 
O=C(Cn1ccc(Cl)n1)c1c([O-])n(Cc2cnc(Cl)s2)c2cccc[n+]12 [Example I-1-011] | 2.03 | 100% |  | 
O=C(CCl)c1c([O-])n(Cc2cnc(Cl)s2)c2cccc[n+]12 [Example I-1-209] |  | 100% | 1.24 | 
Cc1cccc2n(Cc3ccc(Cl)nc3)c([O-])c(C(=O)NC3CC3)[n+]12 [Example I-1-171] | 1.05 | 100% |  | 
COCC(=O)c1c([O-])n(Cc2ccc(C(F)(F)F)nc2)c2cccc[n+]12 [Example I-1-180] | 1.49 | 100% |  | 
O=C(Nc1ccccc1F)c1c([O-])n(Cc2cnc(Cl)s2)c2cccc[n+]12 [Example I-1-286] |  | 100% | 2.95 | 
N#Cc1ccn(CC(=O)c2c([O-])n(Cc3cnc(Cl)s3)c3cccc[n+]23)n1 [Example I-1-047] | 1.83 | 100% |  | 
Cc1cccc2n(Cc3ccc(Cl)nc3)c([O-])c(C(=O)CCl)[n+]12 [Example I-1-098] | 1.74 | 100% |  | 
O=C(Cn1cnc(C(F)(F)F)c1)c1c([O-])n(Cc2cnc(Cl)s2)c2cccc[n+]12 [Example I-1-051] | 2 | 100% |  | 
CCS(=O)(=O)CC(=O)c1c([O-])n(Cc2cnc(Cl)s2)c2cccc[n+]12 [Example I-1-042, 1-[(2-chloro-1,3-thiazol-5-yl)methyl]-3-[(ethylsulphonyl)acetyl]-1H-imidazo[1,2-a]pyridin-4-ium-2-olate] |  |  |  | chromatographic logP ([1]; reversed-phase C18 HPLC column, pH 2.7, HPLC on reversed-phase column (footnote a), read-out: log p): 1.38; chromatographic logP ([1]; reversed-phase C18 HPLC column, HPLC-MS, reversed-phase C18, 43° C., calibration with alkan-2-ones, read-out: log P): 1.38; pest or weed control at 20 ppm [2]: 100%
O=C(NCC(F)(F)F)c1c([O-])n(Cc2ccc(Cl)nc2)c2cccc[n+]12 [Example I-1-312] |  | 100% | 1.98 | 
CC(NC(=O)c1c([O-])n(Cc2cnc(Cl)s2)c2cccc[n+]12)c1ccc(Cl)cc1 (stereo not drawn) [Example I-1-142] | 3.13 | 100% |  | 
COCC(=O)c1c([O-])n(Cc2cnc(OC)s2)c2ccc(C)c[n+]12 [Example I-1-173] | 1.35 | 100% |  | 
CCOCC(=O)c1c([O-])n(Cc2ccc(Cl)nc2)c2c(C)ccc[n+]12 [Example I-1-182] | 1.6 | 100% |  | 
CC(c1ccc(Cl)nc1)n1c([O-])c(C(=O)Nc2c(F)cccc2F)[n+]2ccccc12 (stereo not drawn) [Example I-1-272] |  | 100% | 2.46 | 
CC(c1ccc(Cl)nc1)n1c([O-])c(C(=O)NC2(C#N)CC2)[n+]2ccccc12 (stereo not drawn) [Example I-1-271] |  | 100% | 1.69 | 
Cc1ccc[n+]2c(C(=O)Nc3ncccn3)c([O-])n(Cc3ccc(Cl)nc3)c12 [Example I-1-265] |  | 90% | 1.51 | 
Cc1ccc[n+]2c(C(=O)NC(C)(C)C)c([O-])n(Cc3cnc(Cl)s3)c12 [Example I-1-213] |  | 100% | 2.69 | 
COC(=O)c1c([O-])n(Cc2cnc(Cl)s2)c2c(C)ccc[n+]12 [Example I-1-206] |  | 100% | 1.46 | 
O=C(NC1CC1)c1c([O-])n(Cc2ccc(C(F)(F)F)nc2)c2cccc[n+]12 [Example I-1-200] |  | 90% | 1.87 | 

Compound | log p [1, 3] | efficacy [2] | log p a) [1] | further results
O=C(COc1cccnc1)c1c([O-])n(Cc2ccc(Cl)nc2)c2cccc[n+]12 [Example I-1-006] | 0.93 | 100% |  | 
COCC(=O)c1c([O-])n(Cc2cnc(Cl)s2)c2ccc(C)c[n+]12 [Example I-1-174] | 1.52 | 100% |  | 
Cc1ccc[n+]2c(C(=O)NC3CC3)c([O-])n(C(C)c3ccc(Cl)nc3)c12 (racemic) [Example I-1-257] |  | 100% | 1.52 | 
O=C(C[S+]([O-])Cc1ccccc1)c1c([O-])n(Cc2cnc(Cl)s2)c2cccc[n+]12 (stereo not drawn) [Example I-1-035] | 1.72 | 100% |  | 
O=C(Nc1ncccc1F)c1c([O-])n(Cc2ccc(Cl)nc2)c2cccc[n+]12 [Example I-1-317] |  | 100% | 1.49 | 
O=C(CCl)c1c([O-])n(Cc2ccc(Cl)nc2)c2scc[n+]12 [Example I-5-001, 5-(Chloroacetyl)-7-[(6-chloropyridin-3-yl)methyl]-7H-imidazo[2,1-b][1,3]thiazol-4-ium-6-olate] |  |  |  | chromatographic logP [1]: 1.33; chromatographic logP ([1]; pH 2.7): 1.33; pest or weed control at 20 ppm [2]: 100%
CCCOCC(=O)c1c([O-])n(Cc2cnc(Cl)s2)c2ccc(Cl)c[n+]12 [Example I-1-117] | 2.41 | 100% |  | 
CC(c1ccc(Cl)nc1)n1c([O-])c(C(=O)Nc2ccccc2)[n+]2ccccc12 (stereo not drawn) [Example I-1-229] |  | 100% | 2.8 | 
COc1ccc(NC(=O)c2c([O-])n(C(C)c3ccc(Cl)nc3)c3cccc[n+]23)cc1 (stereo not drawn) [Example I-1-237] |  | 90% | 2.66 | 
COC(=O)c1c([O-])n(Cc2ccc(Cl)nc2)c2c(C)ccc[n+]12 [Example I-1-160] | 1.39 | 100% |  | 
Cc1ccc[n+]2c(C(=O)Nc3c(F)cccc3F)c([O-])n(Cc3cnc(Cl)s3)c12 [Example I-1-212] |  | 100% | 2.73 | 
CCOCC(=O)c1c([O-])n(Cc2cncc(Cl)c2)c2cccc[n+]12 [Example I-1-177] | 1.37 | 100% |  | 
Cc1ccc[n+]2c(C(=O)NC3CC3)c([O-])n(Cc3ccc(Cl)nc3)c12 [Example I-1-181] | 1.75 | 100% |  | 
CSc1ccn(CC(=O)c2c([O-])n(Cc3cnc(Cl)s3)c3cccc[n+]23)n1 [Example I-1-052] | 1.94 | 100% |  | 
O=C(CNCc1ccccc1)c1c([O-])n(Cc2cnc(Cl)s2)c2cccc[n+]12 [Example I-1-053] | 1 | 90% |  | 
COc1ccc(NC(=O)c2c([O-])n(Cc3cnc(Cl)s3)c3cccc[n+]23)cc1 [Example I-1-236] |  | 100% | 2.62 | 
COC(=O)c1c([O-])n(Cc2cnc(C)cn2)c2cccc[n+]12 [Example I-1-215] |  | 100% | 0.80 | 
CCOCC(=O)c1c([O-])n(Cc2cnc(Cl)s2)c2ccc(C)c[n+]12 [Example I-1-175] | 1.78 | 100% |  | 
O=C(NC1CCCC1)c1c([O-])n(Cc2cnc(Cl)s2)c2cccc[n+]12 [Example I-1-138] | 2.35 | 100% |  | 
O=C(NC1CC1)c1c([O-])n(Cc2cnc(Cl)c(Cl)c2)c2cccc[n+]12 [Example I-1-201] |  | 100% | 2.08 | 
Cc1cccc2n(Cc3ccc(Cl)nc3)c([O-])c(C(=O)Cn3cccn3)[n+]12 [Example I-1-103] | 1.47 | 100% |  | 
O=C(CCl)c1c([O-])n(Cc2cnc(Cl)s2)c2ccc(Cl)c[n+]12 [Example I-1-108] | 2.2 | 100% |  | 
Cc1ccc[n+]2c(C(=O)COC3CCCC3)c([O-])n(Cc3cnc(Cl)s3)c12 [Example I-1-302] |  | 100% | 2.45 | 
COCC(=O)c1c([O-])n(Cc2cnc(Cl)s2)c2ccc(Cl)c[n+]12 [Example I-1-118] | 1.69 | 100% |  | 
COCC(=O)c1c([O-])n(Cc2cnc(OC)s2)c2cc(Cl)cc[n+]12 [Example I-1-124] | 1.51 | 100% |  | 
COC(=O)c1c([O-])n(C(C)c2ccc(Cl)nc2)c2cccc[n+]12 (stereo not drawn) [Example I-1-198] |  | 100% | 1.32 | 
